Experimental data reported in patent US8309558B2, “Compounds for the treatment of hepatitis C” (Bristol-Myers Squibb Company, priority 2008, dated 2012).
Read-outs that look alike come from different tables or passages of the source.

What was measured:
[1] = tested on: HCV replicon cells; assay: HCV replicon FRET / luciferase assay (96-well plates); format: cell-based; details: Hepatitis C virus, HCV replicon, read-out: EC50
In short: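 Trypsinized replicon cells were seeded with compound titrations and incubated at 37 °C for various times. Alamar blue was added to gauge toxicity. Plates were then rinsed and either lysed with FRET peptide reagent for kinetic fluorescence reading or switched to phenol red-free DMEM for luciferase measurement.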

[2] = target: T1, HCV NS5B RdRp genotype 1b (Hepatitis C virus genotype 1b, UniProt Q9WMX2); assay: Standard HCV NS5B RdRp enzyme assay; format: biochemical; details: HCV NS5B RdRp genotype 1b, read-out: IC50
T1 construct: The protein was expressed with an 18 amino acid C-terminal truncation to enhance the solubility; made in house; host or cells: E. coli BL21(DE3), pET21a vector
T1 sequence (Q9WMX2 2420-2992): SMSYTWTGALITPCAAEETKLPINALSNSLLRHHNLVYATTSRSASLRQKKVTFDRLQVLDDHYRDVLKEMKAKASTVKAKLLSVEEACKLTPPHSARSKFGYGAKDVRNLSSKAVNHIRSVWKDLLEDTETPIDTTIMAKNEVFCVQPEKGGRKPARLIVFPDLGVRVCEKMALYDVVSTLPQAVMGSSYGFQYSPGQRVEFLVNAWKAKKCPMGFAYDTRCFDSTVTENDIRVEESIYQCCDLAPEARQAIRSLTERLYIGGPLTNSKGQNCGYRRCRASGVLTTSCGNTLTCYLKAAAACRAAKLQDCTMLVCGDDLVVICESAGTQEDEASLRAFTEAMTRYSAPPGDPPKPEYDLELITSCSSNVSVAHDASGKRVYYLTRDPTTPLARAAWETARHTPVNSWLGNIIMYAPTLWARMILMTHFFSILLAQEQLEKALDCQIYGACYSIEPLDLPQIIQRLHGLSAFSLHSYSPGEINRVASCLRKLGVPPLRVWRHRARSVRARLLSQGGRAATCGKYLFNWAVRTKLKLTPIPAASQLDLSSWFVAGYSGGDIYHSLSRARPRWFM
In short: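 C-terminally truncated (18 aa) genotype 1b NS5B from E. coli, 28 nM, with 6 nM polyA template, 180 nM biotinylated oligo-dT12 primer and 3H-UTP (0.29 μM total UTP). Hepes pH 7.5 buffer with 2% DMSO; 60 min at 30° C. EDTA stop, SPA read-out; IC50 from seven concentrations by four-parameter fit.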

SMILES: CCC(CC)(NC(=O)c1ccc(Cl)c(-c2ccc3oc(-c4ccc(F)cc4)c(C(=O)NC)c3c2)c1)c1ccccc1
- EC50 ([1]; Table 1b): < 0.25 µM
- IC50 ([2]; Table 1b): < 0.25 µM

SMILES: CNC(=O)c1c(-c2ccc(F)cc2)oc2ccc(-c3cccc(/C=C/C(=O)O)c3)cc12
- EC50 ([1]; Table 1a): 1 to 10 µM
- IC50 ([2]; Table 1a): 0.25 to 1 µM

SMILES: CNC(=O)c1c(-c2ccc(F)cc2)oc2ccc(-c3cc(C(=O)NCC(C)C)ccc3OCC(C)O)cc12 (stereo not drawn)
- EC50 ([1]; Table 1b): < 0.25 µM
- IC50 ([2]; Table 1b): < 0.25 µM

SMILES: CNC(=O)c1c(-c2ccc(F)cc2)oc2ccc(-c3cccc(C(=O)N4CCCC(O)C4)c3)cc12 (stereo not drawn)
- EC50 ([1]; Table 1a): 1 to 10 µM
- IC50 ([2]; Table 1a): 1 to 10 µM

SMILES: CNC(=O)c1c(-c2ccc(F)cc2)oc2ccc(-c3cc(C(=O)NCC(C)C)ccc3OCCN)cc12
- EC50 ([1]; Table 1b): < 0.25 µM
- IC50 ([2]; Table 1b): < 0.25 µM

SMILES: CCCOc1cc(C(=O)NCC(C)C)cc(-c2ccc3oc(-c4ccc(F)cc4)c(C(=O)NC)c3c2)c1
- EC50 ([1]; Table 1b): 1 to 10 µM
- IC50 ([2]; Table 1b): > 10 µM

SMILES: CNC(=O)c1c(-c2ccc(F)cc2)oc2ccc(-c3cccc(C(=O)NC(C)c4ccccc4)c3)cc12 (stereo not drawn)
- EC50 ([1]; Table 1a): < 0.25 µM
- IC50 ([2]; Table 1a): < 0.25 µM

SMILES: CNC(=O)c1c(-c2ccc(F)cc2)oc2ccc(-c3cc(C(=O)NC4(c5ncccn5)CC4)cc(F)c3C)c(F)c12 [drawing 668]
- EC50 ([1]; 24 h, Table 1d (class symbols)): 0.001 to 0.25 µM
- IC50 ([2]; Table 1d (class symbols)): 0.001 to 0.25 µM

SMILES: CNC(=O)c1c(-c2ccc(F)cc2)oc2ccc(-c3cc(C(F)(F)F)ccc3OC)cc12
- EC50 ([1]; Table 1a): > 3.7 µM
- IC50 ([2]; Table 1a): > 10 µM

SMILES: CNC(=O)c1c(-c2ccc(F)cc2)oc2ccc(-c3cccc(C(=O)NC4(C(=O)NS(=O)(=O)C5CC5)CC4)c3)cc12
- EC50 ([1]; Table 1a): > 10 µM
- IC50 ([2]; Table 1a): < 0.25 µM

SMILES: CNC(=O)c1c(-c2ccc(F)cc2)oc2ccc(-c3cc(C(=O)NC4(c5cnc(C)cn5)CC4)ccc3C)c(F)c12
- EC50 ([1]; 24 h, Table 1d (class symbols)): 0.001 to 0.25 µM
- IC50 ([2]; Table 1d (class symbols)): 0.001 to 0.25 µM

SMILES: CNC(=O)c1c(-c2ccc(F)cc2)oc2ccc(-c3cccc(C(=O)N(C)CCC#N)c3)cc12 [drawing 204]
- EC50 ([1]; Table 1a): 1 to 10 µM
- IC50 ([2]; Table 1a): 0.25 to 1 µM

SMILES: CNC(=O)c1c(-c2ccc(F)cc2)oc2ccc(-c3cccc(C(=O)NCCc4cccs4)c3)cc12
- EC50 ([1]; Table 1a): 0.25 to 1 µM
- IC50 ([2]; Table 1a): 0.25 to 1 µM

SMILES: CNC(=O)c1c(-c2ccc(F)cc2)oc2ccc(-c3cc(C(=O)NC4(c5ccccn5)CC4)c(OC(C)C)cc3C)cc12
- EC50 ([1]; Table 1b): < 0.25 µM
- IC50 ([2]; Table 1b): < 0.25 µM

SMILES: CNC(=O)c1c(-c2ccc(F)cc2)oc2ccc(-c3ccc(-c4cncc5ccccc45)c(C(=O)NCC(C)C)c3)cc12
- EC50 ([1]; Table 1b): < 0.25 µM
- IC50 ([2]; Table 1b): 0.25 to 1 µM

SMILES: CNC(=O)c1c(-c2ccc(F)cc2)oc2ccc(-c3cccc(C(=O)Nc4ccccc4-c4ccccc4)c3)cc12
- EC50 ([1]; Table 1a): < 0.25 µM
- IC50 ([2]; Table 1a): 1 to 10 µM

SMILES: CNC(=O)c1c(-c2ccc(F)cc2)oc2cc(NS(C)(=O)=O)c(-c3cccc(C(=O)NC(C)(C)c4ccccc4)c3)cc12
- EC50 ([1]; Table 1a): < 0.25 µM
- IC50 ([2]; Table 1a): < 0.25 µM

SMILES: CNC(=O)c1c(-c2ccc(F)cc2)oc2ccc(-c3cccc(C(=O)NCc4ccc(F)cc4)c3)cc12
- EC50 ([1]; Table 1a): < 0.25 µM
- IC50 ([2]; Table 1a): < 0.25 µM

SMILES: CNC(=O)c1c(-c2ccc(F)cc2)oc2ccc(-c3cc(C(=O)CCC(C)C)ccc3OCCN(C)C)cc12
- EC50 ([1]; Table 1a): < 0.25 µM
- IC50 ([2]; Table 1a): < 0.25 µM

SMILES: CNC(=O)c1c(-c2ccc(F)cc2)oc2ccc(-c3cccc(C(=O)NCCC#N)c3)cc12
- EC50 ([1]; Table 1a): 0.25 to 1 µM
- IC50 ([2]; Table 1a): 0.25 to 1 µM

SMILES: CNC(=O)c1c(-c2ccc(F)cc2)oc2ccc(-c3cc(C(=O)NCC(C)C)ccc3OCc3ccncc3)cc12
- EC50 ([1]; Table 1b): < 0.25 µM
- IC50 ([2]; Table 1b): < 0.25 µM

SMILES: CNC(=O)c1c(-c2ccc(F)cc2)oc2ccc(-c3cccc(C(=O)NC(C)(C)CC(C)=O)c3)cc12
- EC50 ([1]; Table 1a): 0.25 to 1 µM
- IC50 ([2]; Table 1a): 0.25 to 1 µM

SMILES: CNC(=O)c1c(-c2ccc(F)cc2)oc2ccc(-c3cccc(C(=O)NC(C)(C)c4nc(C)no4)c3)cc12
- EC50 ([1]; Table 1b): < 0.25 µM
- IC50 ([2]; Table 1b): < 0.25 µM

SMILES: CNC(=O)c1c(-c2ccc(F)cc2)oc2cc(N(CCO)S(C)(=O)=O)c(-c3cccc(C(=O)NC(C)(C)C)c3)cc12
- EC50 ([1]; Table 1b): < 0.25 µM
- IC50 ([2]; Table 1b): < 0.25 µM

SMILES: CNC(=O)c1c(-c2ccc(F)cc2)oc2ccc(-c3cccc(C(=O)N4CCC[C@H]4C(=O)N(C)C)c3)cc12
- EC50 ([1]; Table 1a): 0.25 to 1 µM
- IC50 ([2]; Table 1a): 0.25 to 1 µM

SMILES: CNC(=O)c1c(-c2ccc(F)cc2)oc2ccc(-c3ccc(C(=O)NCCc4ccccc4Cl)cc3)cc12
- EC50 ([1]; Table 1a): > 10 µM
- IC50 ([2]; Table 1a): > 10 µM

SMILES: CNC(=O)c1c(-c2ccc(F)cc2)oc2ccc(-c3cccc(C(=O)NC4(c5ccccc5)CC4)c3OC)cc12
- EC50 ([1]; Table 1b): > 10 µM
- IC50 ([2]; Table 1b): > 10 µM

SMILES: CNC(=O)c1c(-c2ccc(F)cc2)oc2ccc(-c3ccc(C(=O)N(C)CC(=O)N(C)C)cc3)cc12
- EC50 ([1]; Table 1a): > 10 µM
- IC50 ([2]; Table 1a): > 10 µM

SMILES: CNC(=O)c1c(-c2ccc(F)cc2)oc2ccc(-c3cc(C(=O)NC4(c5ccccn5)CC4)cc(F)c3C)cc12 [drawing 558]
- EC50 ([1]; Table 1b): < 0.25 µM
- IC50 ([2]; Table 1b): < 0.25 µM

SMILES: CNC(=O)c1c(-c2ccc(F)cc2)oc2ccc(-c3cccc(C(=O)NC(C)(C)c4ccncc4)c3)cc12
- EC50 ([1]; Table 1b): < 0.25 µM
- IC50 ([2]; Table 1b): < 0.25 µM
